Assay results taken from PubChem BioAssay AID328 (DTP/NCI, 2004).
Toxic doses and inconclusive results are not listed.

Tested on: BDF1 mice, P388 leukemia ip, median survival T/C
Test: NCI In Vivo Anticancer Drug Screen. Data for tumor model P388 Leukemia (intraperitoneal) in B6D2F1 (BDF1) mice
Settings: endpoint: median survival time, higher = longer survival
Procedure, shortened: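 T/C = treated-group survival ÷ vehicle-control survival; tumour transplanted into mice before dosing.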

[1] = dose: 12.5 mg/kg/injection, schedule: Q01DX009 (ip), vehicle: saline
[2] = dose: 25.0 mg/kg/injection, schedule: Q01DX009 (ip), vehicle: saline
[3] = dose: 100.0 mg/kg/injection, schedule: Q01DX009 (ip), vehicle: Klucel (hydroxypropylcellulose) (HPC)
[4] = dose: 100.0 mg/kg/injection, schedule: Q04DX003 (ip), vehicle: Klucel (hydroxypropylcellulose) (HPC)
[5] = dose: 200.0 mg/kg/injection, schedule: Q01DX009 (ip), vehicle: Klucel (hydroxypropylcellulose) (HPC)
[6] = dose: 200.0 mg/kg/injection, schedule: Q04DX003 (ip), vehicle: Klucel (hydroxypropylcellulose) (HPC)
[7] = dose: 400.0 mg/kg/injection, schedule: Q04DX003 (ip), vehicle: Klucel (hydroxypropylcellulose) (HPC)
[8] = dose: 25.0 mg/kg/injection, schedule: Q04DX003 (ip), vehicle: saline with Tween-80
[9] = dose: 50.0 mg/kg/injection, schedule: Q04DX003 (ip), vehicle: saline with Tween-80
[10] = dose: 100.0 mg/kg/injection, schedule: Q01DX009 (ip), vehicle: saline with Tween-80

With `COC(=O)C1=COC(C)C2CN3CCc4c([nH]c5ccccc45)C3CC12` (stereo not given) the T/C (dose: 20.0 mg/kg/injection, schedule: Q01DX010 (ip), vehicle: saline) was 90 % of control, the T/C (dose: 40.0 mg/kg/injection, schedule: Q01DX010 (ip), vehicle: saline) was 90 % of control and the T/C (dose: 160.0 mg/kg/injection, schedule: Q01DX010 (ip), vehicle: saline) was 90 % of control.

In the case of `CN(C)CCCN1c2ccccc2Sc2ccc(F)cc21`, the T/C (dose: 6.25 mg/kg/injection, schedule: Q01DX009 (ip), vehicle: saline) is reported as 104 % of control, the T/C [1] is reported as 109 % of control and the T/C [2] is reported as 122 % of control. The T/C (dose: 25.0 mg/kg/injection, schedule: Q04DX003 (ip), vehicle: saline) was 104 % of control and the T/C (dose: 50.0 mg/kg/injection, schedule: Q04DX003 (ip), vehicle: saline) was 118 % of control.

For `CCOC(=O)CC(=Nc1ccccc1OC)C(=O)OCC`, the T/C [3] was 86 % of control, the T/C [4] was 104 % of control and the T/C [5] was 86 % of control. The T/C [6] was 95 % of control, the T/C (dose: 400.0 mg/kg/injection, schedule: Q01DX009 (ip), vehicle: Klucel (hydroxypropylcellulose) (HPC)) was 104 % of control and the T/C [7] was 95 % of control.

With `O=C(/C=C/c1cccc2ccccc12)c1ccc(Cl)cc1` the T/C [3] was 109 % of control, the T/C [4] was 104 % of control and the T/C [5] was 95 % of control. For the same compound, the T/C [6] was 104 % of control and the T/C [7] was 95 % of control.

With `COc1cc2c(c(OC)c1OC)-c1ccc(OC)c(=O)cc1[C@@H](NC=O)CC2` the T/C (dose: 0.05 mg/kg/injection, schedule: Q01DX009 (ip), vehicle: Klucel (hydroxypropylcellulose) (HPC)) was 120 % of control, the T/C (dose: 0.09 mg/kg/injection, schedule: Q01DX009 (ip), vehicle: Klucel (hydroxypropylcellulose) (HPC)) was 160 % of control and the T/C (dose: 0.19 mg/kg/injection, schedule: Q01DX009 (ip), vehicle: Klucel (hydroxypropylcellulose) (HPC)) was 160 % of control. For the same compound, the T/C (dose: 0.37 mg/kg/injection, schedule: Q01DX010 (ip), vehicle: saline) was 154 % of control, the T/C (dose: 0.38 mg/kg/injection, schedule: Q01DX009 (ip), vehicle: Klucel (hydroxypropylcellulose) (HPC)) was 190 % of control and the T/C (dose: 0.38 mg/kg/injection, schedule: Q01DX010 (ip), vehicle: saline) was 158 % of control. The T/C (dose: 0.75 mg/kg/injection, schedule: Q01DX009 (ip), vehicle: Klucel (hydroxypropylcellulose) (HPC)) was 100 % of control, the T/C (dose: 0.75 mg/kg/injection, schedule: Q01DX010 (ip), vehicle: saline) was 170 % of control and the T/C (dose: 6.3 micrograms/kg/injection, schedule: Q01DX010 (ip), vehicle: saline) was 100 % of control. For the same compound, the T/C (dose: 12.0 micrograms/kg/injection, schedule: Q01DX009 (ip), vehicle: Klucel (hydroxypropylcellulose) (HPC)) was 100 % of control, the T/C (dose: 12.5 micrograms/kg/injection, schedule: Q01DX010 (ip), vehicle: saline) was 88 % of control and the T/C (dose: 23.0 micrograms/kg/injection, schedule: Q01DX009 (ip), vehicle: Klucel (hydroxypropylcellulose) (HPC)) was 120 % of control. The T/C (dose: 25.0 micrograms/kg/injection, schedule: Q01DX010 (ip), vehicle: saline) was 111 % of control and the T/C (dose: 50.0 micrograms/kg/injection, schedule: Q01DX010 (ip), vehicle: saline) was 111 % of control.

With `Cn1ccn(C2CCCCC2)c1=O` the T/C [8] was 95 % of control and the T/C [9] was 100 % of control.

With `COc1cc2oc(=O)c3c(c2cc1OC)CCN(CCN1CCCCC1)C3` the T/C (dose: 50.0 mg/kg/injection, schedule: Q04DX002 (ip), vehicle: saline) was 101 % of control, the T/C (dose: 100.0 mg/kg/injection, schedule: Q04DX002 (ip), vehicle: saline) was 100 % of control and the T/C (dose: 200.0 mg/kg/injection, schedule: Q04DX002 (ip), vehicle: saline) was 108 % of control.

`COC(=O)c1ccc(COc2ccc([N+](=O)[O-])cc2Cl)cc1` was tested, and the T/C (dose: 44.0 mg/kg/injection, schedule: Q01DX009 (ip), vehicle: saline with Tween-80) was 90 % of control, the T/C (dose: 66.0 mg/kg/injection, schedule: Q01DX009 (ip), vehicle: saline with Tween-80) was 90 % of control and the T/C [10] was 90 % of control. For the same compound, the T/C (dose: 150.0 mg/kg/injection, schedule: Q01DX009 (ip), vehicle: saline with Tween-80) was 86 % of control, the T/C (dose: 176.0 mg/kg/injection, schedule: Q04DX003 (ip), vehicle: saline with Tween-80) was 100 % of control and the T/C (dose: 200.0 mg/kg/injection, schedule: Q01DX009 (ip), vehicle: saline with Tween-80) was 115 % of control. For the same compound, the T/C (dose: 264.0 mg/kg/injection, schedule: Q04DX003 (ip), vehicle: saline with Tween-80) was 100 % of control, the T/C (dose: 400.0 mg/kg/injection, schedule: Q01DX009 (ip), vehicle: saline with Tween-80) was 105 % of control and the T/C (dose: 400.0 mg/kg/injection, schedule: Q04DX003 (ip), vehicle: saline with Tween-80) was 90 % of control.

In the case of `CCOC(=S)SCc1nc2ccccc2[nH]1`, the T/C (dose: 100.0 mg/kg/injection, schedule: Q04DX003 (ip), vehicle: saline) is reported as 90 % of control, the T/C (dose: 200.0 mg/kg/injection, schedule: Q04DX003 (ip), vehicle: saline) is reported as 107 % of control and the T/C (dose: 400.0 mg/kg/injection, schedule: Q04DX003 (ip), vehicle: saline) is reported as 105 % of control.

In the case of `COc1ccc(C(=O)C=C(C(F)(F)F)C(F)(F)F)cc1`, the T/C (dose: 6.25 mg/kg/injection, schedule: Q04DX003 (ip), vehicle: saline with Tween-80) is reported as 113 % of control, the T/C (dose: 12.5 mg/kg/injection, schedule: Q04DX003 (ip), vehicle: saline with Tween-80) is reported as 100 % of control and the T/C [8] is reported as 100 % of control. The T/C [9] was 115 % of control and the T/C (dose: 100.0 mg/kg/injection, schedule: Q04DX003 (ip), vehicle: saline with Tween-80) was 110 % of control.

For `NC1C(O)C(O)C(Nc2ncnc3nc[nH]c23)OC1C(O)CO` (stereo not given), the T/C (dose: 1.5 mg/kg/injection, schedule: Q01DX010 (ip), vehicle: saline) was 105 % of control, the T/C (dose: 3.0 mg/kg/injection, schedule: Q01DX010 (ip), vehicle: saline) was 105 % of control and the T/C (dose: 6.0 mg/kg/injection, schedule: Q01DX010 (ip), vehicle: saline) was 100 % of control. For the same compound, the T/C (dose: 12.0 mg/kg/injection, schedule: Q01DX010 (ip), vehicle: saline) was 95 % of control, the T/C (dose: 24.0 mg/kg/injection, schedule: Q01DX010 (ip), vehicle: saline) was 110 % of control and the T/C (dose: 48.0 mg/kg/injection, schedule: Q01DX010 (ip), vehicle: saline) was 105 % of control.

With `Oc1ccc(OCc2ccccc2)cc1` the T/C (dose: 100.0 mg/kg/injection, schedule: Q04DX003 (ip), vehicle: other) was 100 % of control, the T/C (dose: 200.0 mg/kg/injection, schedule: Q04DX003 (ip), vehicle: other) was 104 % of control and the T/C (dose: 400.0 mg/kg/injection, schedule: Q04DX003 (ip), vehicle: other) was 100 % of control.

In the case of `NNc1cc(N)[nH]n1`, the T/C [1] is reported as 106 % of control, the T/C [2] is reported as 100 % of control and the T/C (dose: 50.0 mg/kg/injection, schedule: Q01DX009 (ip), vehicle: saline) is reported as 100 % of control. For the same compound, the T/C (dose: 100.0 mg/kg/injection, schedule: Q01DX009 (ip), vehicle: saline) was 93 % of control.

In the case of `CC(=O)c1cccc(NC2C(N)C(NC(=O)N(C)C)(C(C)O)C(C)(O)C2(O)COC(=O)c2c(C)cccc2O)c1` (stereo not given), the T/C (dose: 5.4 mg/kg/injection, schedule: Q04DX003 (ip), vehicle: alkali diluted with saline) is reported as 167 % of control, the T/C (dose: 6.5 mg/kg/injection, schedule: Q04DX003 (ip), vehicle: alkali diluted with saline) is reported as 163 % of control and the T/C (dose: 8.64 mg/kg/injection, schedule: Q04DX003 (ip), vehicle: alkali diluted with saline) is reported as 159 % of control. For the same compound, the T/C (dose: 9.0 mg/kg/injection, schedule: Q04DX003 (ip), vehicle: alkali diluted with saline) was 170 % of control and the T/C (dose: 10.8 mg/kg/injection, schedule: Q04DX003 (ip), vehicle: alkali diluted with saline) was 169 % of control.

With `O=C(O)c1cc(S(=O)(=O)F)cc(S(=O)(=O)F)c1` the T/C (dose: 25.0 mg/kg/injection, schedule: Q01DX009 (ip), vehicle: alcohol) was 113 % of control, the T/C (dose: 33.0 mg/kg/injection, schedule: Q01DX009 (ip), vehicle: alcohol) was 116 % of control and the T/C (dose: 50.0 mg/kg/injection, schedule: Q01DX009 (ip), vehicle: alcohol) was 112 % of control.

In the case of `O=C(CCCCl)CC(O)(C(F)(F)F)C(F)(F)F`, the T/C (dose: 12.5 mg/kg/injection, schedule: Q01DX009 (ip), vehicle: saline with Tween-80) is reported as 95 % of control, the T/C (dose: 25.0 mg/kg/injection, schedule: Q01DX009 (ip), vehicle: saline with Tween-80) is reported as 100 % of control and the T/C (dose: 50.0 mg/kg/injection, schedule: Q01DX009 (ip), vehicle: saline with Tween-80) is reported as 115 % of control. The T/C [10] was 104 % of control.
